Laboratory results from patent publication US20210147932A1, “FLUORESCENT PROBES FOR QUANTIFICATION OF DNA DAMAGE AND REPAIR” (The Board of Trustees of the Leland Stanford Junior …, priority 2019, published 2021).
“Also recorded” adds a separate entry of the source.

Assays:
[1] = Absorption spectra of free and AP site bound probe; assay type: physicochemical; conditions: in buffer
From the text: FIG. 24 provides normalized absorption spectra of free Compound (1) (CCJV1 probe) and AP site bound probe in buffer. Oxime formation with the AP site red shifts absorption from a λmax of 454 nm in the unbound probe to a λmax of 468 nm in the bound probe. The extinction coefficient calculated for the unbound probe is 30,400 M^−1·cm^−1 and 28,700 M^−1·cm^−1 for the bound probe.
Instrumentation: NMR spectra were acquired on a Varian Inova 400 (400 MHz) or 500 (500 MHz) spectrometer and chemical shift reported in parts per million (6) relative to internal standard TMS (0 ppm). Small molecule mass spectra were measured on a Waters 2795 system via electrospray ionization (ESI) with a ZQ single quadrupole MS. Oligonucleotide mass spectra were acquired by MALDI-TOF using a Bruker Microflex MALDI-TOF in negative ion mode. Ultraviolet spectra were measured on a Cary 300. Fluorescence emission and excitation spectra were recorded on a Jobin Yvon-Spex Fluorolog 3 spectrometer with an external temperature controller. Fluorescence time courses were collected on a Fluoroskan Ascent Microplate Fluorometer (Thermo Fisher Scientific). Oligonucleotide concentrations were determined by UV-absorption on a NanoDrop One Microvolume UV-Vis Spectrophotometer (ThermoFisher Scientific). DNA synthesis was carried out on an Applied Biosystems 394 DNA/RNA synthesizer.

[2] = Off-target light-up with small-molecule carbonyl species; conditions: 5 μM CCVJ1, 500 μM carbonyl species, 37° C.
Description: FIG. 13 provides fluorescence response of 5 μM Compound (1) (CCVJ1) with 500 μM of various biologically relevant carbonyl species after 1 h incubation in buffer at 37° C. […] (Ex. 485, Em. 538)
Since the probe design involves conformational restriction to induce a light-up signal, it was hypothesized that off-target oxime formation with small molecules might induce a relatively small signal relative to DNA, thus providing a measure of selectivity in signaling. […] Another potential aspect is that ketones or aldehydes in the environment might compete with the DNA AP site to react with the aminooxy group, thereby consuming the free probe and reducing the maximum signal. Initial testing of the reactivity of CCVJ1 with AP site-containing DNA in the presence of increasing amounts of competing 2-deoxyribose, the closest small-molecule analogue to the DNA AP site. […] This was repeated this experiment with pyruvic acid, a highly reactive ketone and a common cellular metabolite.

[3] = test system: DNA hairpin containing a tetrahydrofuran spacer (pseudo AP site); assay: Fluorescence of probe with pseudo AP site DNA hairpin (non-covalent); assay type: binding
Description: FIG. 9 provides interaction between Compound (1) (CCVJ1) and DNA. […] (Ex. 485, Em. 538).
To further explore the hypothesis that the oxime rate acceleration in these AP-site DNAs was related to base stacking interactions, the fluorescence was measured of CCVJ1 in the presence and absence of a non-lesion containing DNA hairpin.

## N#C/C(=C\c1cc2c3c(c1)CCCN3CCC2)C(=O)NCCON [CCVJ1]
[1]
  absorption λmax, AP site bound probe: 468 nm
  absorption λmax, unbound probe: 454 nm
  extinction coefficient, bound probe: 28,700 M^−1·cm^−1
  extinction coefficient, unbound probe: 30,400 M^−1·cm^−1
[2]
  light-up response with small-molecule ketones and aldehydes: absence of any fluorescence response; also recorded: none of them generated a significant light-up response
[3]
  fluorescence with pseudo AP hairpin, higher than with undamaged DNA: ~4 fold
[3]; 5 μM probe, 20 μM DNA
  increase in fluorescence with pseudo AP hairpin over the free probe: ~10 fold
